The record followed here is ChEMBL document CHEMBL3046517, “Synthesis and antimicrobial study of fluoroquinolone-based 4-thiazolidinones” (2010).

What all share (format): functional
For one assay, the system named is Streptococcus pyogenes. The assay is described as follows: Antibacterial activity against Streptococcus pyogenes by broth dilution method. For orientation: Broth dilution looks for growth in wells or tubes with falling amounts of substance.
In another assay the test system is Aspergillus clavatus. As to the kind of experiment: Antifungal activity against Aspergillus clavatus by broth dilution method.
Another assay has as its system Aspergillus niger. The assay is described as follows: Antifungal activity against Aspergillus niger by broth dilution method.
The test system of the next assay is Pseudomonas aeruginosa. The assay is described as follows: Antibacterial activity against Pseudomonas aeruginosa by broth dilution method.
The test system of the next assay is Candida albicans. The assay is described as follows: Antifungal activity against Candida albicans by broth dilution method.
For a further assay, the system named is Staphylococcus aureus. As to the kind of experiment: Antibacterial activity against Staphylococcus aureus by broth dilution method.
A further assay concerns Escherichia coli. As to the kind of experiment: Antibacterial activity against Escherichia coli by broth dilution method.

Values after ≈ are worked out from the molar mass of the structure shown.

Broadly, the MIC is the lowest concentration found to suppress growth. Read a high MIC as weaker potency. On to `COc1ccc(N2CCN(c3cc4c(cc3F)c(=O)c(C(=O)N/N=C\c3ccc(F)cc3)cn4C3CC3)CC2)cc1`, for which the MIC against Streptococcus pyogenes, against Aspergillus clavatus, in the assay on Aspergillus niger, in the assay on Pseudomonas aeruginosa, in the assay with Candida albicans and in the assay with Staphylococcus aureus was 500 µg/mL (≈ 897 µM) throughout. The compound also yielded a minimal inhibitory concentration (MIC) against Escherichia coli of 250 µg/mL (≈ 448 µM).
Regarding `COc1ccc(N2CCN(c3cc4c(cc3F)c(=O)c(C(=O)N/N=C\c3ccccc3[N+](=O)[O-])cn4C3CC3)CC2)cc1`, the MIC with Streptococcus pyogenes amounted to 150 µg/mL (≈ 257 µM); against Aspergillus clavatus, 1000 µg/mL (≈ 1710 µM); with Aspergillus niger, 1000 µg/mL (≈ 1710 µM); with Pseudomonas aeruginosa, 100 µg/mL (≈ 171 µM); in the assay on Candida albicans it was 1000 µg/mL (≈ 1710 µM); with Staphylococcus aureus, 150 µg/mL (≈ 257 µM). This compound showed a minimal inhibitory concentration (MIC) against Escherichia coli of 50 µg/mL (≈ 85.5 µM).
For `O=C(N/N=C\c1ccc(F)cc1)c1cn(C2CC2)c2cc(Cl)c(F)cc2c1=O`, the minimal inhibitory concentration (MIC) amounted to 500 µg/mL (≈ 1240 µM) in the assay with Streptococcus pyogenes; 1000 µg/mL (≈ 2490 µM) in the assay with Aspergillus clavatus; 1000 µg/mL (≈ 2490 µM) in the assay on Aspergillus niger; 500 µg/mL (≈ 1240 µM) in the assay with Pseudomonas aeruginosa; 1000 µg/mL (≈ 2490 µM) in the assay with Candida albicans; 500 µg/mL (≈ 1240 µM) in the assay on Staphylococcus aureus. In the assay with Escherichia coli, this compound registered a minimum inhibitory concentration (MIC) of 500 µg/mL (≈ 1240 µM).
On to `COc1ccc(C2SCC(=O)N2NC(=O)c2cn(C3CC3)c3cc(N4CCN(c5ccc(OC)cc5)CC4)c(F)cc3c2=O)cc1` (stereo not drawn), for which the MIC in the assay with Streptococcus pyogenes was 1000 µg/mL (≈ 1550 µM); against Aspergillus clavatus it was > 1000 µg/mL; in the assay on Aspergillus niger, 500 µg/mL (≈ 777 µM); in the assay with Pseudomonas aeruginosa, 500 µg/mL (≈ 777 µM); in the assay on Candida albicans, 500 µg/mL (≈ 777 µM); against Staphylococcus aureus it was 1000 µg/mL (≈ 1550 µM). Also, the minimum inhibitory concentration (MIC) with Escherichia coli stood at 500 µg/mL (≈ 777 µM).
As to `COc1ccc(N2CCN(c3cc4c(cc3F)c(=O)c(C(=O)NN3C(=O)CSC3c3ccc(O)c(OC)c3)cn4C3CC3)CC2)cc1` (stereo not drawn), the minimal inhibitory concentration (MIC) was 1000 µg/mL (≈ 1520 µM) against Streptococcus pyogenes; 1000 µg/mL (≈ 1520 µM) in the assay with Aspergillus clavatus; > 1000 µg/mL in the assay on Aspergillus niger; 1000 µg/mL (≈ 1520 µM) against Pseudomonas aeruginosa; 500 µg/mL (≈ 758 µM) in the assay with Candida albicans; 1000 µg/mL (≈ 1520 µM) against Staphylococcus aureus. Besides, the minimal inhibitory concentration (MIC) in the assay on Escherichia coli stood at 1000 µg/mL (≈ 1520 µM).
Take `COc1ccc(N2CCN(c3cc4c(cc3F)c(=O)c(C(=O)NN3C(=O)CSC3c3ccc(F)cc3)cn4C3CC3)CC2)cc1` (stereo not drawn): the minimal inhibitory concentration (MIC) against Streptococcus pyogenes was 1000 µg/mL (≈ 1580 µM); against Aspergillus clavatus, 1000 µg/mL (≈ 1580 µM); against Aspergillus niger it was 1000 µg/mL (≈ 1580 µM); against Pseudomonas aeruginosa, 500 µg/mL (≈ 792 µM); in the assay with Candida albicans it was 1000 µg/mL (≈ 1580 µM); in the assay with Staphylococcus aureus it was 1000 µg/mL (≈ 1580 µM). In the assay on Escherichia coli, this compound had an MIC of 1000 µg/mL (≈ 1580 µM).
As to `COc1ccc(N2CCN(c3cc4c(cc3F)c(=O)c(C(=O)NN3C(=O)CSC3c3ccccc3Cl)cn4C3CC3)CC2)cc1` (stereo not drawn), the MIC against Streptococcus pyogenes was 100 µg/mL (≈ 154 µM); against Aspergillus clavatus, 1000 µg/mL (≈ 1540 µM); in the assay on Aspergillus niger, > 1000 µg/mL; against Pseudomonas aeruginosa, 500 µg/mL (≈ 771 µM); against Candida albicans it was 1000 µg/mL (≈ 1540 µM); against Staphylococcus aureus, 500 µg/mL (≈ 771 µM). Further, the minimum inhibitory concentration (MIC) in the assay on Escherichia coli stood at 1000 µg/mL (≈ 1540 µM).
Regarding `COc1ccc(N2CCN(c3cc4c(cc3F)c(=O)c(C(=O)NN3C(=O)CSC3c3ccccc3O)cn4C3CC3)CC2)cc1` (stereo not drawn), the MIC amounted to 500 µg/mL (≈ 794 µM) with Streptococcus pyogenes; 1000 µg/mL (≈ 1590 µM) against Aspergillus clavatus; 1000 µg/mL (≈ 1590 µM) against Aspergillus niger; 1000 µg/mL (≈ 1590 µM) against Pseudomonas aeruginosa; 500 µg/mL (≈ 794 µM) against Candida albicans; 500 µg/mL (≈ 794 µM) against Staphylococcus aureus. The same compound came in with an MIC against Escherichia coli of 500 µg/mL (≈ 794 µM).
With `COc1cc(/C=N\NC(=O)c2cn(C3CC3)c3cc(Cl)c(F)cc3c2=O)ccc1O`, the MIC against Streptococcus pyogenes came to 500 µg/mL (≈ 1160 µM); with Aspergillus clavatus it was 1000 µg/mL (≈ 2330 µM); in the assay on Aspergillus niger it was 500 µg/mL (≈ 1160 µM); against Pseudomonas aeruginosa it was 200 µg/mL (≈ 465 µM); against Candida albicans it was 100 µg/mL (≈ 233 µM); against Staphylococcus aureus, 200 µg/mL (≈ 465 µM). The compound further gave an MIC against Escherichia coli of 100 µg/mL (≈ 233 µM).
